Assays:
[1] = system: complementary oligonucleotide; assay: Thermal denaturation of hybrids of ODNs and MGB-ODN conjugates with their complements (Table 6); type: binding; settings: 2 μM ODN, 1:1 with complement; 140 mM KCl, 10 mM MgCl2, 20 mM HEPES-HCl (pH 7.2); 0.5° C./min
Protocol: Hybrids formed between MGB-oligonucleotide conjugates or unmodified oligonucleotides and their complements were melted at a rate of 0.5° C./min in 140 mM KCl, 10 mM MgCl2 and 20 mM HEPES-HCl (pH 7.2) on a Lambda 2S (Perkin Elmer) spectrophotometer with a PTP-6 automatic multicell temperature programmer. Each oligonucleotide (2 μM) was mixed with sufficient complementary oligonucleotide to give a 1:1 ratio. Prior to melting, samples were denatured at 100° C. and then cooled to the starting temperature over a 10 min period. The melting temperatures (Tm) of the hybrids were determined from the derivative maxima and collected in Table 6. In the “sequence” column of Table 6, MGB refers to the presence of CDPI3 conjugated through a hexylamine linker esterified to the 5′-phosphate group of the oligonucleotide (see FIG. 2).

[2] = system: E. coli supF gene contained in the plasmid pSP189; assay: Hydrolyzable probe assay with ppG-substituted 15-mer probe (Example 3); type: biochemical; settings: annealing/elongation at 75° C. (FIG. 6)
From the text: Further increases in discriminatory ability of a MGB-oligonucleotide conjugate are obtained when the conjugate also contains a pyrazolo[3,4-d]pyrimidine nucleotide analogue. In this system, the target sequence is located in the E. coli supF gene contained in the plasmid pSP189 (FIG. 5, SEQ ID No.: 40). See Parris et al. (1992) Gene 117: 1-5. Binding sites for the primers used for amplification are indicated as Primer 1 and Primer 2, with Primer 1 having a sequence and polarity that is identical to that shown in FIG. 5, and Primer 2 having a sequence and polarity that is the reverse complement to that shown in FIG. 5. A 15-mer probe, labeled with fluorescein at the 5′-end, and with TAMRA and CDPI3 at the 3′-end, was designed to be complementary to a region within the approximately 375 nucleotides between the primers, as indicated in FIG. 5. This probe was tested using a series of templates, each containing a different single-nucleotide mismatch with the probe sequence, as shown in FIG. 5 and described infra.
The 15-nucleotide region of the template that is complementary to the probe used in this study was modified to generate a series of point mutations, as shown in FIG. 5. Each of the mutant templates was used in a separate assay with the 15-mer probe. The mutant sequences within this region of the template were as follows, with the mismatched nucleotide indicated by bold underlining: […]

[3] = system: HIA DQβ1 0302 allele in BSM cells; assay: Sequence-specific alkylation of a gene in cultured human cells (cell culture crosslinking, LM-PCR); type: cell-based
exact complement = assay: Tm of 8-mer oligonucleotides with varying A + T content, with and without MGB (Table 11); type: binding; settings: MGB-conjugated 8-mer hybridized with its exact complement
Protocol: Short oligonucleotides of differing A+T content, conjugated to a MGB, were used to investigate the effect of base composition on Tm for MGB-short oligonucleotide conjugates (Table 11). Tms were determined on a Perkin Elmer) λ2S UV/VIS spectrophotometer, equipped with a PTP-6 temperature controller, using the PECSS software package.

[4] = system: long single stranded DNA template; assay: Primer extension experiment (blockage of T7 DNA polymerase by ODN); type: biochemical; settings: template 5×10^−10 M, primer 4×10^−8 M, blocking ODN 10^−9 M; 15 min at 45° C.; denaturing gel
Protocol: In this experiment, primer extension occurs with the enzyme T7 DNA polymerase that works from the 5′ end of a template strand. A 16-mer ODN-MGB which was complementary in the Watson Crick sense to a target sequence on the template strand was incubated with a long single stranded DNA template and the T7 DNA polymerase enzyme. […] The minor groove binder was the pyrroloindole tripeptide shown in this application in Table 5. When there was a single mismatch in the sequence specificity of the 16-mer to the target, primer extension was not blocked. Primer extension Was also not blocked when the minor groove binder moiety was attached to the 3′ end of the 16-mer. Primer extension was also not blocked when the sequence specific 16-mer and the free minor groove binder molecule (Compound 3d, not covalently attached to the ODN) was incubated with the template and the enzyme. […] (See Nucleic Acid Research (1993) 21: 5332-5336).
Primer extension reactions were performed as previously described by Lee, et al., (1994) Biochemistry 33: 6024-6030. The final concentrations of template, primer and blocking ODMs were 5×10^−10 M, 4×10^−8 M and 10^−9 M, respectively. Primer extension was carried out for 15 min at 45° C. and the products were analyzed by denaturing gel electrophoresis as described in the reference. […]

“1 (DNA ATAAAACAGAGGTGAG; DNA, backbone not given here) [compound 1]” showed a Tm [1] of 45 °C.
In the case of “2 (DNA ATAAAACAGAGG; DNA, backbone not given here) [compound 2]”, the Tm [1] is reported as 39 °C.
Substance “3 (DNA ATAAAACAGA; DNA, backbone not given here) [compound 3]” has a Tm [1] of 24 °C.
Substance “4 (DNA TAATAACGTTCGGGCA; DNA, backbone not given here) [compound 4]” has a Tm [1] of 50 °C.
“5 (DNA ATAACG; DNA, backbone not given here) [compound 5]” gave a Tm [1] of 16 °C.
With “5'-GGGTTCCCGAGCGGC (chemistry not fully specified) [MGB-conjugated 15-mer, 5′-fluorescein, 3′-TAMRA and CDPI3 probe, all guanine residues replaced by ppG]” the “generation of signal with single-base mismatch” value [2] was “completely suppressed” and the “level of signal with perfect match” value [2] was “no effect on the level of signal”.
With “5′-GGTTATTTTTGAAGATACGAATTTCUCCAGAGACACAGCAGGATTTGTCA-CDPI3 [CDPI3-containing 50-mer]” the “alkylation of the targeted site” value ([3]; 1-50 μM, […], LM-PCR, sequencing gel) was “had bound to and alkylated the targeted site” and the “efficiency of sequence specific alkylation of the 0302 allele versus the same ODN without the MGB” value ([3]; […] at 37° C.) was 10 fold.
Substance “5′-MGB-CAATAATA: 8-mer MGB-oligonucleotide conjugate” has a Tm + MGB (exact complement) of 45 °C.
Substance “8 (DNA CGGGCAAA; DNA, backbone not given here) [compound 8]” has a Tm [1] of 25 °C.
“9 (DNA CGGGCAAAGGATTTAA; DNA, backbone not given here) [compound 9]” was tested, and the Tm [1] was 47 °C.
Substance “10 (DNA GGCAAA; DNA, backbone not given here) [compound 10]” has a Tm [1] of less than 17 °C.
“11 (DNA CGGCTCTA; DNA, backbone not given here) [compound 11]” gave a Tm [1] of 23 °C.
“12 (DNA CGGCTCTAATCTATTA; DNA, backbone not given here) [compound 12]” showed a Tm [1] of 43 °C.
Work on “13 (DNA TATTTTAGATAACCTT; DNA, backbone not given here) [compound 13]” yielded a Tm [1] of 34 °C.
“[3-carbamoyl-1,2-dihydro-3H-pyrrolo[3,2-e]indole-7-carbox]-1-amido-3-propanol Trmer [Compound 3d]” was tested, and the “blockage of primer extension by T7 DNA polymerase” value [4] was “not blocked”.

— patent publication US8465921B2, “Hybridization and mismatch discrimination using oligonucleotides conjugated to minor groove binders” (Elitech Holding B.V., priority 1995, dated 2013)
